Measured values as given in PubChem BioAssay AID588764 (Broad Institute, 2011).
Results filed as inconclusive are left out. Activity calls are given as the source filed them. No rule for the calls is given here.

Molecular target: Histone acetyltransferase RTT109 (Candida albicans (strain SC5314 / ATCC MYA-2876)) (UniProt Q5AAJ8)
Assay: Rtt109/Vps75 acetyltransferase inhibitor potency, dose response, biochemical, cherry-picked hits, plate reader (AID 588764)
Conditions: Rtt109/Vps75 HAT activity; for activity change, negative = inhibition: at 19.5 µM (top of the series)

Chain of Histone acetyltransferase RTT109 (Candida albicans (strain SC5314 / ATCC MYA-2876)) (Q5AAJ8 whole entry, looked up): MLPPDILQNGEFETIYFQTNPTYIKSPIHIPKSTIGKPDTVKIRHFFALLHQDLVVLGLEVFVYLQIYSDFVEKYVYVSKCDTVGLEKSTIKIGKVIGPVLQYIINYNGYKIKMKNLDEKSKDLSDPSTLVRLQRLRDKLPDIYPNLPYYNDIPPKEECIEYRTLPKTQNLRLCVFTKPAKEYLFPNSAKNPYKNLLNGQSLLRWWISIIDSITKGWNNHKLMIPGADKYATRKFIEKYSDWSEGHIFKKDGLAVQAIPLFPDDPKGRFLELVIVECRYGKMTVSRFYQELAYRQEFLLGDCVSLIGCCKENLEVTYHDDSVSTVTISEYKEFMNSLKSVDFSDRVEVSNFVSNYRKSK

Structure (SMILES)	activity change, negative = inhibition	AC50
C=CCOc1ccc(/C(O)=C2\C(=O)C(=O)N(CCOC)C2c2cccnc2)cc1 (stereo not drawn)	inactive	
COc1ccc(/C=C2/SC(=O)N(NS(=O)(=O)c3ccccc3)C2=S)cc1OC	inactive	
Cc1ccccc1C(=O)NC(NC(=S)Nc1ccc(S(N)(=O)=O)cc1)C(Cl)(Cl)Cl (stereo not drawn)	inactive	
O=C1CN(C(=O)/C=C/c2ccc(Cl)cc2)c2ccccc2N1	inactive	
CC(=O)/C(=N/Nc1ccccc1)Sc1nnc(C(O)c2ccccc2)n1-c1ccccc1 (stereo not drawn)	inactive	
O=C(Nc1ccccc1Cl)c1cc(S(=O)(=O)N2CCCCC2)ccc1N1CCOCC1	inactive	
CCOC(=O)c1ccc(N2C(=O)c3n[nH]c(C)c3C2c2ccc(OC)cc2)cc1 (stereo not drawn)	inactive	
O=C(OCc1ccc(Br)cc1)c1ccncc1	inactive	
Oc1c(Cl)cc(Cl)c(Cl)c1Cc1c(O)c(Cl)cc(Cl)c1Cl		5.48 µM
NC(N)=N/N=C/c1ccc(OCc2ccccc2)c(OCc2ccccc2)c1	inactive	
O=C(C1CCOCC1)N1CCCC(N2CCN(c3cccc(C(F)(F)F)c3)CC2)C1 (stereo not drawn)	inactive	
Fc1ccc(NC(=S)Nc2ccc(Br)cc2)cc1	inactive	
C=CCNc1nnc(SC2CC(=O)N(c3ccc(OC)cc3)C2=O)s1 (stereo not drawn)		13.4 µM
CCCCCCCCCCCCCCCC[N+](C)(C)CCN(Cc1ccc(OC)cc1)c1ncccn1		16.1 µM
Cc1ccccc1Nc1nnc(SCC2CCCCO2)s1 (stereo not drawn)	inactive	
Cc1c(C(=O)N2CCC[C@H]2CO)oc2c(F)cccc12	inactive	
CCn1c(C)c(CS(=O)(=O)c2ccccc2)[nH]c1=O		11.3 µM
CCCCCCCCCn1c2c(c(=N)c3c1CCC3)CCC2	inactive	
CN(C)c1ccc(/C=C/c2ccc3c4ccccc4ccc3[n+]2-c2ccccc2)cc1	inactive	
Cc1ccc2nc(N(CCCN(C)C)C(=O)c3sc4ccccc4c3Cl)sc2c1	inactive	
N=C1c2ccccc2CN1NC(=O)c1ccccc1	inactive	
CC(=O)Nc1ccc(OCC(=O)NCc2ccccc2)cc1	inactive	
CC(C)c1nc(SCC(=O)Nc2ccc(N3CCOCC3)cc2)c2ccccc2n1	inactive	
Cc1ccc(C(=O)NCC(=O)OCCOc2ccccc2Cl)cc1	inactive	

Structure (SMILES)	activity change, negative = inhibition	AC50
N#Cc1c(Nc2ccccc2Cl)s[nH]c1=O		4.21 µM
CN(CC(=O)Nc1ccc(Cl)cc1)C(=O)c1cccc(S(=O)(=O)NCc2ccccc2)c1	inactive	
CCOC(=O)c1c(CSC(=N)N)n(C)c2cc(Br)c(OC(C)=O)cc12	inactive	
COc1cc(NC(=O)C(Cc2ccccc2)n2cccc2)cc(OC)c1 (stereo not drawn)	inactive	
COc1ccc2nc(NC(=O)CN3C(=O)NC4(CCCCC4)C3=O)sc2c1	inactive	
COC(=O)c1c(NC(=O)C2CC(C)=C(C)CC2C(=O)O)sc2c1CCCCC2 (stereo not drawn)	inactive	
O=S(=O)(c1ccc(Cl)cc1)N1CCN(c2ncccn2)CC1	inactive	
CCN1CCN(C(c2cccnc2)c2cc(Cl)c3cccnc3c2O)CC1 (stereo not drawn)		13.9 µM
Cc1cc(CN2C(=O)c3ccccc3C2=O)no1	inactive	
Cn1c(SCC(=O)NC2CCCCC2)nnc1-c1cccnc1	inactive	
N#CC1=C(S)N(c2ccccc2)C(c2ccc(-c3cccc(Cl)c3)o2)NC1=O (stereo not drawn)		11.9 µM
CCCNC(=O)Cn1sc2nc(C)cc(C)c2c1=O		2.32 µM
CC1CCN(c2nc(CN3CCCCC3)nc3scc(-c4ccccc4)c23)CC1	inactive	
O=C(O)c1cccc2c1NC(C(=O)O)C1CC(Sc3ccccc3[N+](=O)[O-])C(Cl)C21 (stereo not drawn)	inactive	
CCCCOc1ccc(C2C(C(=O)c3ccc(C)o3)=C(O)C(=O)N2Cc2ccco2)cc1 (stereo not drawn)	inactive	
COC(=O)c1cccc(-n2sc3ccccc3c2=O)c1		4.38 µM
Cc1ccc(NC(=S)N(CCCN2CCCC2)Cc2cccn2Cc2ccc(Cl)cc2)cc1C	inactive	
CC(=O)Nc1ccc(NC(=O)c2nc(S(=O)(=O)Cc3ccccc3)ncc2Cl)cc1		6.3 µM
COc1cccc(NC(=O)CSc2nc3c(sc4ccccc43)c(=O)n2CCN(C)C)c1	inactive	
COc1cc(NC(=O)COc2c(C)cc(C)cc2[N+](=O)[O-])c(OC)cc1Cl	inactive	
CN(C)S(=O)(=O)Oc1ccccc1C(=O)Nc1ccccc1Cl	inactive	
O=C(Nc1ccc(F)cc1F)N1CCCC(c2nc(-c3ccc(F)cc3)no2)C1 (stereo not drawn)	inactive	
CSc1c(SCc2ccccc2)cnn(-c2ccccc2)c1=O	inactive	
O=C(COC(=O)Cc1ccccc1[N+](=O)[O-])Nc1nnc(-c2ccccc2)o1	inactive	

Structure (SMILES)	activity change, negative = inhibition	AC50
CCc1cccc(NC(=O)C2CCCN(c3ncnc4c3nc3n4CCCCC3)C2)c1 (stereo not drawn)	inactive	
COc1cccc(/C=C2/Sc3ccc(C(=O)NCCN4CCCC4)cc3NC2=O)c1	inactive	
Cc1nc2ccccc2n1CC(=O)NC1CCCC1	inactive	
O=C(CCc1ccc(S(=O)(=O)N2CCOCC2)cc1)N/N=C/c1ccc(O)c(O)c1O		9.29 µM
COc1cc(SC#N)ccc1N=Cc1c(C)[nH]n(-c2ccc(C)c(C)c2)c1=O	inactive	
Cc1ccc2c(c1)sc(C)[n+]2CCCS(=O)(=O)[O-]	inactive	
CC(C(=O)NC1CCS(=O)(=O)C1)N1C(=O)/C(=C/c2ccc(Cl)cc2)SC1=S (stereo not drawn)	inactive	
COc1ccc(NC(=O)CSc2nnc(-c3ccccc3)n2N)cc1	inactive	
O=C1C(Cl)=C(N2CCOCC2)C(=O)N1c1ccccc1Cl		14.8 µM
COc1ccc(-n2nc3c(c2NC(=O)c2ccc(N4C(=O)CCC4=O)cc2)CSC3)cc1	inactive	
CCOc1ccc(N2C(=O)CSC2c2ccncc2)cc1 (stereo not drawn)	inactive	
CCOc1cc(S(=O)(=O)N2CCC(Cc3ccccc3)CC2)c(OCC)cc1-n1cnnn1	inactive	
Nc1nc2ccc(S(=O)(=O)N3CCCCC3)cc2s1		19.5 µM
CC[n+]1c(C)sc2c(C)cc(C)cc21	inactive	
COc1ccc2[nH]c(=O)c(CN(Cc3nnnn3Cc3ccccc3)CC3CCCO3)cc2c1 (stereo not drawn)	inactive	
Cc1cc(C)cc(NC(=O)NC(C)C2CCCO2)c1 (stereo not drawn)	inactive	
CCOC(=O)C1CCN(S(=O)(=O)c2ccc3c(c2)CC(C)N3C(=O)C2CCC2)CC1 (stereo not drawn)	inactive	
Fc1ccc(C2CC(c3ccco3)=Nc3ccccc3S2)cc1 (stereo not drawn)	inactive	
O=c1[nH]c2ccccc2n2c(-c3ccccc3)nnc12		1.98 µM
CCn1c(SCC(=O)Nc2ccc(Br)cc2)nc2sc3c(c2c1=O)CCN(C)C3	inactive	
CN(C)c1ccc(NC(=O)/C=C/c2ccccc2Cl)cc1	inactive	
COc1ccc(C(=O)C(CCC(CNC(C)(C)C)C(=O)c2ccc(OC)cc2)CNC(C)(C)C)cc1 (stereo not drawn)	inactive	
CCN(CC)c1ccc(C(=S)N2CCN(c3ccccc3)CC2)cc1	inactive	
O=C(Nc1ccc(F)cc1)c1c(O)c2c(n(Cc3ccccc3)c1=O)CCCC2	inactive	

Structure (SMILES)	activity change, negative = inhibition	AC50
CCN(c1ccc(OC)cc1)S(=O)(=O)c1nnc(NC(=O)COc2ccc(C)cc2)s1	inactive	
CCOC(=O)c1ccc(N=C2C(=S)N(c3ccc(C(=O)OCC)cc3)C(=N)N2/N=C/c2ccccc2)cc1	inactive	
CCN1/C(=C/c2ccc3cc(C)cc(C)c3[n+]2CC)Sc2cc(C)ccc21	inactive	
Cc1ccccc1N1C(S)=C(C#N)C(=O)NC1c1cccs1 (stereo not drawn)		17.7 µM
CC1(C)CC2(CC(c3ccccc3F)c3ccc(O)c(O)c3O2)NC(=S)N1 (stereo not drawn)		19.7 µM
CCOC(=O)C1=C(C)NC(C)=C(C(=O)OCC)C1C(=O)OCC(=O)NCCc1ccc(S(N)(=O)=O)cc1	inactive	
COc1ccc(CC(NC(C)=O)C(=O)NC2CCN(c3nc(C)cc(C)c3C#N)CC2)cc1 (stereo not drawn)	inactive	
O=S(=O)(NN1CCOCC1)c1ccc(Br)cc1		11.6 µM
CCOC(=O)c1cc2c(N)c(C(=O)c3cc(C#N)c(SC)nc3C)sc2nc1C	inactive	
COc1ccc(/C=N/NC(=O)COc2ccc(Cl)cc2Cl)cc1Cn1nc(C)cc1C	inactive	
COc1ccccc1CC(=O)N1CCN(S(=O)(=O)c2ccccc2F)CC1	inactive	
Cc1ccc(CN2CCN(CC(=O)NCc3ccccc3)CC2)cc1	inactive	
CCc1sc(C(=O)Nc2cccc(C(C)=O)c2)cc1C	inactive	
Nc1c(C(=O)c2ccccc2)oc2ccc([N+](=O)[O-])cc12	inactive	
Cc1cc(C)c2c(=O)n(CC(=O)N3CCC(N4CCCCC4)CC3)sc2n1		4.72 µM
COCC(=O)OCC(=O)Nc1cc(C)c(C)cc1[N+](=O)[O-]	inactive	
CCOC(=O)c1c(NC(=O)C[n+]2ccc(Cc3ccccc3)cc2)sc(C)c1C	inactive	
O=C(CSc1nnc2ccccn12)NNC(=O)c1cccc(Cl)c1	inactive	
Cc1ccccc1N1C(S)=C(C#N)C(=O)NC12CCCCC2	inactive	
COc1ccc(S(=O)(=O)N(C)C)cc1NC(=O)Cc1ccc(S(=O)(=O)N2CCOCC2)s1	inactive	
Cc1ccccc1-n1sc2cc(F)ccc2c1=O		5.9 µM
